B1: His6-tagged MsbA (natural protein, UniProt P60752 1-582, looked up)
chain: MHNDKDLSTWQTFRRLWPTIAPFKAGLIVAGVALILNAASDTFMLSLLKPLLDDGFGKTDRSVLVWMPLVVIGLMILRGITSYVSSYCISWVSGKVVMTMRRRLFGHMMGMPVSFFDKQSTGTLLSRITYDSEQVASSSSGALITVVREGASIIGLFIMMFYYSWQLSIILIVLAPIVSIAIRVVSKRFRNISKNMQNTMGQVTTSAEQMLKGHKEVLIFGGQEVETKRFDKVSNRMRLQGMKMVSASSISDPIIQLIASLALAFVLYAASFPSVMDSLTAGTITVVFSSMIALMRPLKSLTNVNAQFQRGMAACQTLFTILDSEQEKDEGKRVIERATGDVEFRNVTFTYPGRDVPALRNINLKIPAGKTVALVGRSGSGKSTIASLITRFYDIDEGEILMDGHDLREYTLASLRNQVALVSQNVHLFNDTVANNIAYARTEQYSREQIEEAARMAYAMDFINKMDNGLDTVIGENGVLLSGGQRQRIAIARALLRDSPILILDEATSALDTESERAIQAALDELQKNRTSLVIAHRLSTIEKADEIVVVEDGVIVERGTHNDLLEHRGVYAQLHKMQFGQ
notes: The same protein was prepared with different amounts of endogenous lipid (DDC, DLW, DHW in peptidisc; DDM in detergent); also called DDC-MsbA; DLW-MsbA; source: E. coli BL21(DE3), membranes solubilized with DDM, purified (Ni-NTA), reconstituted in peptidiscs or kept in DDM

Legend:
[1] = system: T1, SecYEG (HD-SecYEG; PD-SecYEG-CL); assay: CL added before peptidisc reconstitution; SecA ATPase by Malachite green; SecA binding by clear-native PAGE; format: biochemical, Escherichia coli; settings: 20:1 lipid to SecYEG molar ratio; with SecA; 1 mM ATP, 10 mM MgCl2, pH 8.8, 37°C; lipid activator
T1 construct: gene secY; read out with SecA; with Protein translocase subunit SecA

[2] = biological target: the molecule itself; assay: native gel or EMSA; 5-13% native PAGE with Coomassie staining of the DDM-MsbA and peptidisc-MsbA preparations (DDC, DLW, DHW)

T1 sequence (P0AG96 whole entry): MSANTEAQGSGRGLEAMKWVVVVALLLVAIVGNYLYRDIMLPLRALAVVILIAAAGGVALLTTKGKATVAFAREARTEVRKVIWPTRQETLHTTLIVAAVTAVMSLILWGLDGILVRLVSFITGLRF
T1 sequence (P0AGA2 whole entry, further chain): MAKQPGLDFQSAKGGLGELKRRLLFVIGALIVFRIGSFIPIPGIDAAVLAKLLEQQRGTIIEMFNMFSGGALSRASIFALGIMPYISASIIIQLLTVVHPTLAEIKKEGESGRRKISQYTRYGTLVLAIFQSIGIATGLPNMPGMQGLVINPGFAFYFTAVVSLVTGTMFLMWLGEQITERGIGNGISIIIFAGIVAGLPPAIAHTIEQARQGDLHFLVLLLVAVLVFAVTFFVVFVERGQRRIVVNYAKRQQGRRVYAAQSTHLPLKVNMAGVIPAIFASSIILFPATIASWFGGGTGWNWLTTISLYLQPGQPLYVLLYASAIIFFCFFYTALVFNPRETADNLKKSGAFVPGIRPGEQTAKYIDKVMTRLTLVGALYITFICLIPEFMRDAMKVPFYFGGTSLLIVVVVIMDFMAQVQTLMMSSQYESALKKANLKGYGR
T1 sequence (P10408 whole entry, further chain): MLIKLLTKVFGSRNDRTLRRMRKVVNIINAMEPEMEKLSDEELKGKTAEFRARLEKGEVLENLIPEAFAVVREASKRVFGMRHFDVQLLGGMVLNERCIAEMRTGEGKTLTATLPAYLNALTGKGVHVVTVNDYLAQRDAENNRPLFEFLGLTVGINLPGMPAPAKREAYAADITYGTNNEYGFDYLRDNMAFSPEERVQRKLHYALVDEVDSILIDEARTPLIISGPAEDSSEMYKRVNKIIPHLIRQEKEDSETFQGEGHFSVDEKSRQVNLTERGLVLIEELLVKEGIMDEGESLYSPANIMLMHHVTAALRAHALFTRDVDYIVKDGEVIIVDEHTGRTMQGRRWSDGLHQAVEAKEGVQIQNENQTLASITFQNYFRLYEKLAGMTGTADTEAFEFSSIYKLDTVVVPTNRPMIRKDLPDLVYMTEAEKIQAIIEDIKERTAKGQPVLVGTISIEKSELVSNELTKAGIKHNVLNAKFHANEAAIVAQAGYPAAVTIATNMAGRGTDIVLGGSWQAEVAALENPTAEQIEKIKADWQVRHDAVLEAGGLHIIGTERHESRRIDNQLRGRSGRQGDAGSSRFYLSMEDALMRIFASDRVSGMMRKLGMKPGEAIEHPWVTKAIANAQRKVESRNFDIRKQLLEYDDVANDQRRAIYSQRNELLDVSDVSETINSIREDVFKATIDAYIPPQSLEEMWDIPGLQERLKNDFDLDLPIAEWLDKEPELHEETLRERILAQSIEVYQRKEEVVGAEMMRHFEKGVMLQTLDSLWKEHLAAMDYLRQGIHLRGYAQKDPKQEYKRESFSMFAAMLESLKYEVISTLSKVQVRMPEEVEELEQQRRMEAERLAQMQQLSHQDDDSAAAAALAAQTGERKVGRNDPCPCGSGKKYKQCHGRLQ
T1 sequence (P0AG99 whole entry, further chain): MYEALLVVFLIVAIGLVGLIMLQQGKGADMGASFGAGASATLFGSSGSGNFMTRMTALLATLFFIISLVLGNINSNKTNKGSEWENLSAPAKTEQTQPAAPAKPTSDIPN

| Molecule | fold increase in SecA ATPase activity [1] | stoichiometry N [2] |
| --- | --- | --- |
| CCCCCCCC/C=C\CCCCCCCC(=O)O[C@H](COC(=O)CCCCCCCCCCCCCCC)COP(=O)(O)OCC(O)COP(=O)(O)OC[C@@H](COC(=O)CCCCCCCCCCCCCCC)OC(=O)CCCCCCC/C=C\CCCCCCCC (some centres unmarked) [CL, 1',3'-bis[1-palmitoyl-2-oleoyl-sn-glycero-3-phospho]-glycerol] | ~ 4 fold |  |
| B1 |  | 2 |

— article PMC10993126, “Capture of endogenous lipids in peptidiscs and effect on protein stability and activity” (iScience, 2024)
